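1) Cells in 96-well plates. 2) Compound, 48 h, 5 concentrations. 3) Linear interpolation between surrounding doses. 4) Unreached endpoint = highest concentration. Here, GI50 denotes the concentration required for 50% inhibition of growth.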 Calls of active or inactive are those of the source. No stated cut-off is given here; in the data, active = GI50 up to about 1.1 µM and inactive = higher.
What was measured:
Assay in all cases: DTP human tumour cell line panel, 48 h
Malme-3M = test system: Malme-3M
MDA-MB-231 = test system: MDA-MB-231
T47D = test system: T47D
CAKI-1 = test system: CAKI-1
MOLT-4 = test system: MOLT-4
COLO 205 = test system: COLO 205
LOX IMVI = test system: LOX IMVI
ACHN = test system: ACHN
OVCAR-3 = test system: OVCAR-3
UACC-62 = test system: UACC-62
Hs-578T = test system: Hs-578T
A498 = test system: A498
SK-MEL-28 = test system: SK-MEL-28
786-0 = test system: 786-0
A549 = test system: A549
SW-620 = test system: SW-620
SK-OV-3 = test system: SK-OV-3
SN12C = test system: SN12C
SF-539 = test system: SF-539

SMILES | GI50 (Malme-3M) | GI50 (MDA-MB-231) | GI50 (T47D) | GI50 (CAKI-1) | GI50 (MOLT-4) | GI50 (COLO 205) | GI50 (LOX IMVI) | GI50 (ACHN) | GI50 (OVCAR-3) | GI50 (UACC-62) | GI50 (Hs-578T) | GI50 (A498) | GI50 (SK-MEL-28) | GI50 (786-0) | GI50 (A549) | GI50 (SW-620) | GI50 (SK-OV-3) | GI50 (SN12C) | GI50 (SF-539)
Oc1ccc2ccccc2c1/N=N/c1ccc(/N=N/c2ccccc2)cc1 | > 100 µM (inactive) | 89.1 µM (inactive) | > 100 µM (inactive) | > 100 µM (inactive) | > 100 µM (inactive) | > 100 µM (inactive) | > 100 µM (inactive) | > 100 µM (inactive) | > 100 µM (inactive) | 75.7 µM (inactive) | > 100 µM (inactive) | > 100 µM (inactive) | > 100 µM (inactive) | > 100 µM (inactive) | 74.5 µM (inactive) | > 100 µM (inactive) | > 100 µM (inactive) | > 100 µM (inactive) | 
N#CCCN(CCC#N)c1ccc(/C=C2\N=C(c3ccccc3)N(c3ccccc3)C2=O)cc1 | > 100 µM (inactive) | > 100 µM (inactive) | > 100 µM (inactive) |  | 8.59 µM (inactive) | 9.38 µM (inactive) | 7.21 µM (inactive) | > 100 µM (inactive) | > 100 µM (inactive) | > 100 µM (inactive) | 19.3 µM (inactive) | > 100 µM (inactive) | > 100 µM (inactive) | 17 µM (inactive) | > 100 µM (inactive) | > 100 µM (inactive) | > 100 µM (inactive) | > 100 µM (inactive) | 6.11 µM (inactive)
C[C@H](NC(=O)CNC(=O)CCCCCC(=O)NCC(=O)N[C@@H](C)C(=O)OCc1ccccc1)C(=O)OCc1ccccc1 | > 100 µM (inactive) | > 100 µM (inactive) | > 100 µM (inactive) | > 100 µM (inactive) | > 100 µM (inactive) | > 100 µM (inactive) | > 100 µM (inactive) | > 100 µM (inactive) | > 100 µM (inactive) | > 100 µM (inactive) | > 100 µM (inactive) |  | > 100 µM (inactive) | > 100 µM (inactive) | > 100 µM (inactive) | > 100 µM (inactive) | > 100 µM (inactive) | > 100 µM (inactive) | > 100 µM (inactive)
O=c1ccn(C2OC(CN(O)CCC3C(O)C(CO)OC3n3ccc(=O)[nH]c3=O)C(O)C2O)c(=O)[nH]1 (configuration not stated) | > 100 µM (inactive) | > 100 µM (inactive) | > 100 µM (inactive) | > 100 µM (inactive) |  | > 100 µM (inactive) | > 100 µM (inactive) | > 100 µM (inactive) | > 100 µM (inactive) |  | > 100 µM (inactive) | > 100 µM (inactive) |  | > 100 µM (inactive) | > 100 µM (inactive) |  | > 100 µM (inactive) | > 100 µM (inactive) | 
[N-]=[N+]=Nc1ccccc1-c1ccccc1[N+](=O)[O-] | 26.4 µM (inactive) | 50.2 µM (inactive) | 38.4 µM (inactive) | > 100 µM (inactive) | 22.1 µM (inactive) |  | 48.6 µM (inactive) | > 100 µM (inactive) | 39.4 µM (inactive) | 74.3 µM (inactive) | 30.5 µM (inactive) | 45 µM (inactive) | > 100 µM (inactive) | 88.1 µM (inactive) | > 100 µM (inactive) | 48.5 µM (inactive) | > 100 µM (inactive) | 97.9 µM (inactive) | 
C[C@@H]1S[C@H](c2ccccc2F)N2Cc3ccccc3N=C12 | 19.9 µM (inactive) | 35 µM (inactive) | 24.1 µM (inactive) | 20.9 µM (inactive) | 18.2 µM (inactive) | 30.8 µM (inactive) | 18.5 µM (inactive) | 31.4 µM (inactive) | 34.4 µM (inactive) | 19.1 µM (inactive) | 27.7 µM (inactive) |  | 40.7 µM (inactive) | 23.4 µM (inactive) | 39.2 µM (inactive) | 36.4 µM (inactive) | 25.1 µM (inactive) | 18.7 µM (inactive) | 37.9 µM (inactive)
O=S1(=O)OCc2ccccc21 | > 100 µM (inactive) | 20.8 µM (inactive) | > 100 µM (inactive) |  | 15.7 µM (inactive) | > 100 µM (inactive) |  | 61.5 µM (inactive) | 32.5 µM (inactive) | 80.2 µM (inactive) | > 100 µM (inactive) | 37.5 µM (inactive) | > 100 µM (inactive) | 60.1 µM (inactive) | > 100 µM (inactive) | 85.7 µM (inactive) | > 100 µM (inactive) | > 100 µM (inactive) | 25.2 µM (inactive)
Clc1cccc(-c2sc(-c3cccs3)cc2Cc2cccs2)c1 | > 10 µM (inactive) | 9.84 µM (inactive) | 0.74 µM (active) | > 10 µM (inactive) | > 10 µM (inactive) | > 10 µM (inactive) | > 10 µM (inactive) | > 10 µM (inactive) |  | > 10 µM (inactive) | > 10 µM (inactive) |  | > 10 µM (inactive) | > 10 µM (inactive) | > 10 µM (inactive) | > 10 µM (inactive) | > 10 µM (inactive) | > 10 µM (inactive) | > 10 µM (inactive)
Nn1c(-c2ccccc2)nn(C(=O)c2ccccc2)c1=O | > 100 µM (inactive) | > 100 µM (inactive) | > 100 µM (inactive) |  | > 100 µM (inactive) | > 100 µM (inactive) | > 100 µM (inactive) | > 100 µM (inactive) | > 100 µM (inactive) |  | > 100 µM (inactive) | > 100 µM (inactive) | > 100 µM (inactive) | > 100 µM (inactive) | > 100 µM (inactive) | > 100 µM (inactive) |  | 87.1 µM (inactive) | > 100 µM (inactive)
Cc1cc(C)nc(NC(=S)Nc2ccc([N+](=O)[O-])cc2)c1 |  | > 100 µM (inactive) | > 100 µM (inactive) | > 100 µM (inactive) | > 100 µM (inactive) | > 100 µM (inactive) | > 100 µM (inactive) | > 100 µM (inactive) |  | > 100 µM (inactive) | > 100 µM (inactive) | > 100 µM (inactive) | > 100 µM (inactive) | > 100 µM (inactive) |  | > 100 µM (inactive) |  |  | > 100 µM (inactive)
Cc1ccc(S(=O)(=O)C2=C(C(C)C)N=NC2(C)C)cc1 |  | > 100 µM (inactive) | 60.1 µM (inactive) | 26.7 µM (inactive) | 18.7 µM (inactive) |  | 88.9 µM (inactive) | > 100 µM (inactive) | > 100 µM (inactive) |  | 57.5 µM (inactive) | > 100 µM (inactive) | > 100 µM (inactive) | > 100 µM (inactive) | 81.3 µM (inactive) | > 100 µM (inactive) |  | > 100 µM (inactive) | > 100 µM (inactive)
COC1CC(OC2C(C)OC(OC3C(C)OC(OC4C(O)CC(O[C@H]5CC[C@@]6(C)C(=CC[C@]7(O)[C@@H]6C[C@@H](OC(C)=O)[C@@]6(C)[C@]7(O)CC[C@@]6(O)C(C)=O)C5)OC4C)CC3OC)CC2OC)OC(C)C1O (some centres not stated) | 8.26 µM (inactive) | > 12.5 µM (inactive) | > 12.5 µM (inactive) | > 12.5 µM (inactive) | > 12.5 µM (inactive) | > 12.5 µM (inactive) | > 12.5 µM (inactive) | > 12.5 µM (inactive) | > 12.5 µM (inactive) | > 12.5 µM (inactive) | > 12.5 µM (inactive) |  |  | > 12.5 µM (inactive) | > 12.5 µM (inactive) | > 12.5 µM (inactive) | > 12.5 µM (inactive) | > 12.5 µM (inactive) | > 12.5 µM (inactive)
COc1cc2oc(=O)ccc2cc1CC=C(C)C [SUBEROSIN] | 37.4 µM (inactive) | 50.2 µM (inactive) | 15.8 µM (inactive) | 40.6 µM (inactive) | 28.8 µM (inactive) | 43.4 µM (inactive) | 39.1 µM (inactive) | 35.2 µM (inactive) | 59.7 µM (inactive) |  | 35.4 µM (inactive) | 27.2 µM (inactive) | 76.4 µM (inactive) | > 10 µM (inactive) | 46.8 µM (inactive) | 41.3 µM (inactive) |  | 47.6 µM (inactive) | 37.7 µM (inactive)
O=C(O)c1ccccc1/C=N\N(CCO)C1=NCCN1 | > 100 µM (inactive) | > 100 µM (inactive) | > 100 µM (inactive) |  | > 100 µM (inactive) | > 100 µM (inactive) | > 100 µM (inactive) | > 100 µM (inactive) | > 100 µM (inactive) | > 100 µM (inactive) | > 100 µM (inactive) |  | > 100 µM (inactive) | > 100 µM (inactive) | > 100 µM (inactive) | > 100 µM (inactive) | > 100 µM (inactive) | > 100 µM (inactive) | > 100 µM (inactive)
Cc1cc2c(c(C(=O)NCC(=O)N[C@@H](C)C(=O)OCc3ccccc3)c1)Oc1c(cc(C)cc1C(=O)NCC(=O)N[C@@H](C)C(=O)OCc1ccccc1)S2 | 16.1 µM (inactive) | 34.4 µM (inactive) | 2.41 µM (inactive) | > 100 µM (inactive) | 78 µM (inactive) | > 100 µM (inactive) |  | > 100 µM (inactive) | 22 µM (inactive) | 30.8 µM (inactive) | 26.2 µM (inactive) | > 100 µM (inactive) |  | > 100 µM (inactive) | > 100 µM (inactive) | > 100 µM (inactive) | > 100 µM (inactive) | > 100 µM (inactive) | 
O=C1C(=Cc2cccc(Cl)c2)N=C(c2ccccc2)N1n1c(-c2ccccc2)nc2ccccc2c1=O | 50.8 µM (inactive) | 50 µM (inactive) | 29.7 µM (inactive) | 45.1 µM (inactive) | 23.4 µM (inactive) | 40 µM (inactive) | 31.3 µM (inactive) | 37.7 µM (inactive) | 28 µM (inactive) | 23.9 µM (inactive) | 41.4 µM (inactive) |  | 50.2 µM (inactive) | 47.4 µM (inactive) | 32.9 µM (inactive) | 45.3 µM (inactive) | 47.2 µM (inactive) | 45.2 µM (inactive) | 27.9 µM (inactive)
